Measured values reported in paper PMC12475274, “Harnessing indole scaffolds to identify small-molecule IRE1α inhibitors modulating XBP1 mRNA splicing” (Nature Communications, 2025).
Entries after “also recorded” stand apart in the source; their conditions may differ.

Assays:
TEK (Tie2) = TEK (Tie2) (Homo sapiens, UniProt Q02763); assay: Kinase profiling (SelectScreen), ZLYTE; type: biochemical
Procedure: (§1) Kinase profiling was conducted by the SelectScreen Kinase Profiling Services (Thermo Fisher), using Z′-LYTE, Adapta, or LanthaScreen Eu Kinase Binding Assay for different kinases. The kinome phylogenetic tree was generated using the KinMap web portal.

ABL1 = ABL1 (Homo sapiens, UniProt P00519); assay: Kinase profiling (SelectScreen), ZLYTE; type: biochemical
Procedure: as §1

CAMK1D (CaMKI delta) = CAMK1D (CaMKI delta) (Homo sapiens, UniProt Q8IU85); assay: Kinase profiling (SelectScreen), ZLYTE; type: biochemical
Procedure: as §1

ROCK1 = ROCK1 (Homo sapiens, UniProt Q13464); assay: Kinase profiling (SelectScreen), ZLYTE; type: biochemical
Procedure: as §1

ERBB2 (HER2) = ERBB2 (HER2) (Homo sapiens, UniProt P04626); assay: Kinase profiling (SelectScreen), ZLYTE; type: biochemical
Procedure: as §1

EGFR (ErbB1) = EGFR (ErbB1) (Homo sapiens, UniProt P00533); assay: Kinase profiling (SelectScreen), ZLYTE; type: biochemical
Procedure: as §1

IGF1R = IGF1R (Homo sapiens, UniProt P08069); assay: Kinase profiling (SelectScreen), ZLYTE; type: biochemical
Procedure: as §1

RET = RET (Homo sapiens, UniProt P07949); assay: Kinase profiling (SelectScreen), ZLYTE; type: biochemical
Procedure: as §1

LCK = LCK (Homo sapiens, UniProt P06239); assay: Kinase profiling (SelectScreen), ZLYTE; type: biochemical
Procedure: as §1

NEK1 = NEK1 (Homo sapiens, UniProt Q96PY6); assay: Kinase profiling (SelectScreen), ZLYTE; type: biochemical
Procedure: as §1

DNA-PK = DNA-PK (Homo sapiens, UniProt P78527); assay: Kinase profiling (SelectScreen), ZLYTE; type: biochemical
Procedure: as §1

KIT = KIT (Homo sapiens, UniProt P10721); assay: Kinase profiling (SelectScreen), ZLYTE; type: biochemical
Procedure: as §1

TAOK2 (TAO1) = TAOK2 (TAO1) (Homo sapiens, UniProt Q9UL54); assay: Kinase profiling (SelectScreen), ZLYTE; type: biochemical
Procedure: as §1

HIPK4 = HIPK4 (Homo sapiens, UniProt Q8NE63); assay: Kinase profiling (SelectScreen), ZLYTE; type: biochemical
Procedure: as §1

CDK1/cyclin B = CDK1/cyclin B (Homo sapiens, UniProt P06493); assay: Kinase profiling (SelectScreen), ZLYTE; type: biochemical
Procedure: as §1

PLK1 = PLK1 (Homo sapiens, UniProt P53350); assay: Kinase profiling (SelectScreen), ZLYTE; type: biochemical
Procedure: as §1

PRKCB1 (PKC beta I) = PRKCB1 (PKC beta I) (Homo sapiens, UniProt P05771); assay: Kinase profiling (SelectScreen), ZLYTE; type: biochemical
Procedure: as §1

IKBKE (IKK epsilon) = IKBKE (IKK epsilon) (Homo sapiens, UniProt Q14164); assay: Kinase profiling (SelectScreen), ZLYTE; type: biochemical
Procedure: as §1

SYK = SYK (Homo sapiens, UniProt P43405); assay: Kinase profiling (SelectScreen), ZLYTE; type: biochemical
Procedure: as §1

FGFR1 = FGFR1 (Homo sapiens, UniProt P11362); assay: Kinase profiling (SelectScreen), ZLYTE; type: biochemical
Procedure: as §1

GSK3B (GSK3 beta) = GSK3B (GSK3 beta) (Homo sapiens, UniProt P49841); assay: Kinase profiling (SelectScreen), ZLYTE; type: biochemical
Procedure: as §1

[1] = tested on: IRE1α transcription level in HCT 116 cells; assay: RT-qPCR of IRE1α transcription level, HCT 116; type: cell-based, human; conditions: HCT 116 cells
Procedure: (§2) A549 cells, HCT 116 cells, and HT-29 cells were collected and seeded in 6-well plates at a density of 5 × 10^5 cells per well and cultured overnight to attach, then treated with compound or DMSO for 2 h, then 0.5 μg/mL final concentration of tunicamycin (Tm, MP Biomedi, 0215002805) were added to induce the ER stress for 2 h. After treatment, total RNA was purified using an RNeasy mini kit (Qiagen, 74106). 500 ng of total RNA was used for reverse transcription using the High-Capacity cDNA Reverse Transcription Kits (Thermo Fisher, 4368814). cDNA was diluted 1: 5 using RNase-free water, and 1 μL CDNA was used for each qPCR reaction. The qPCR was performed using PowerUp™ SYBR™ Green Master Mix (Thermo Fisher, A25742) with 10 µL reaction volume using Bio-Rad CFX96 Real-Time PCR Detection System following the standard cycling mode (primer Tm ≥ 60 °C) on the manufacturer’s protocol. Data was analyzed using the 2^- ΔΔCt method. The primers used are listed in Supplementary Table S3. The inhibition % was calculated by using the equation: inhibition% = 100× (normalized Tm control - normalized of the sample)/(normalized Tm control - normalized DMSO control). Tm control: Cells treated with tunicamycin; DMSO control: Cells treated with DMSO only.

[2] = tested on: IRE1α transcription level in HT-29 cells; assay: RT-qPCR of IRE1α transcription level, HT-29; type: cell-based, human; conditions: HT-29 cells
Procedure: as §2

Chain of ROCK1 (Q13464 whole entry): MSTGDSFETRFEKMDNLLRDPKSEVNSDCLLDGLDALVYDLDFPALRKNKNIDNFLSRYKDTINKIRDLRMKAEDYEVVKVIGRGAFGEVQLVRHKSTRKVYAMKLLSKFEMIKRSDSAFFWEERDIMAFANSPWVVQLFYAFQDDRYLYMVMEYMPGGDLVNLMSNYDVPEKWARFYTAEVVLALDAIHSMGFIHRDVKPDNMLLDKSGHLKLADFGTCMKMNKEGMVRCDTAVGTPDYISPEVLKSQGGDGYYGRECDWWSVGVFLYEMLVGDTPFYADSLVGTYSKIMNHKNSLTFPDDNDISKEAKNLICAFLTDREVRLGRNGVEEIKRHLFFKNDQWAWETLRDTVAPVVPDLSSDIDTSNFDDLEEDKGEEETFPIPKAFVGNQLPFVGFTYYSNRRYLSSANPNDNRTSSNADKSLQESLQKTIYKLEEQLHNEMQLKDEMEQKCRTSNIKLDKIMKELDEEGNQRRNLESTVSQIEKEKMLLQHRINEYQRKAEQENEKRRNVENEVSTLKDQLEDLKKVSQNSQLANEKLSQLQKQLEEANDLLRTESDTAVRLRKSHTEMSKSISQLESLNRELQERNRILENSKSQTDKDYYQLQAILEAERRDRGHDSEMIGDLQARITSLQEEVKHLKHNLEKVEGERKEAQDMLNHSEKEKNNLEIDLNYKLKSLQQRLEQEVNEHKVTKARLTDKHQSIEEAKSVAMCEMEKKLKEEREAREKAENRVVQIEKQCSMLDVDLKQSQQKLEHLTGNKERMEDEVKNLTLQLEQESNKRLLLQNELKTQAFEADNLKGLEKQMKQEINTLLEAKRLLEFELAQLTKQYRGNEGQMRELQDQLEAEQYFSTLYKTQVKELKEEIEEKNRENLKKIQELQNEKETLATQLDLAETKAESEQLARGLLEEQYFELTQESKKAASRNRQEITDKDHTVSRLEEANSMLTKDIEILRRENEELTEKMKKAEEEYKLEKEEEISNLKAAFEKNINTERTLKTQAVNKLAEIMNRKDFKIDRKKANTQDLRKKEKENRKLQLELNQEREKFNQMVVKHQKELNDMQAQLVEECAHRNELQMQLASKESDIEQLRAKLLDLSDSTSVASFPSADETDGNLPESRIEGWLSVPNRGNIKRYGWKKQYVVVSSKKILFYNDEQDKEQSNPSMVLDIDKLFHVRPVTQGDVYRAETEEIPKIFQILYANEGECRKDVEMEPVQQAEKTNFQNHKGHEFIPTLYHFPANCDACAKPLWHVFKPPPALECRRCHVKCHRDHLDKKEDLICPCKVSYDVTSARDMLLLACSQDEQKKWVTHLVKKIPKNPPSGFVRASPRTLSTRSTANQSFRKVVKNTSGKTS
Chain of TEK (Tie2) (Q02763 23-1124): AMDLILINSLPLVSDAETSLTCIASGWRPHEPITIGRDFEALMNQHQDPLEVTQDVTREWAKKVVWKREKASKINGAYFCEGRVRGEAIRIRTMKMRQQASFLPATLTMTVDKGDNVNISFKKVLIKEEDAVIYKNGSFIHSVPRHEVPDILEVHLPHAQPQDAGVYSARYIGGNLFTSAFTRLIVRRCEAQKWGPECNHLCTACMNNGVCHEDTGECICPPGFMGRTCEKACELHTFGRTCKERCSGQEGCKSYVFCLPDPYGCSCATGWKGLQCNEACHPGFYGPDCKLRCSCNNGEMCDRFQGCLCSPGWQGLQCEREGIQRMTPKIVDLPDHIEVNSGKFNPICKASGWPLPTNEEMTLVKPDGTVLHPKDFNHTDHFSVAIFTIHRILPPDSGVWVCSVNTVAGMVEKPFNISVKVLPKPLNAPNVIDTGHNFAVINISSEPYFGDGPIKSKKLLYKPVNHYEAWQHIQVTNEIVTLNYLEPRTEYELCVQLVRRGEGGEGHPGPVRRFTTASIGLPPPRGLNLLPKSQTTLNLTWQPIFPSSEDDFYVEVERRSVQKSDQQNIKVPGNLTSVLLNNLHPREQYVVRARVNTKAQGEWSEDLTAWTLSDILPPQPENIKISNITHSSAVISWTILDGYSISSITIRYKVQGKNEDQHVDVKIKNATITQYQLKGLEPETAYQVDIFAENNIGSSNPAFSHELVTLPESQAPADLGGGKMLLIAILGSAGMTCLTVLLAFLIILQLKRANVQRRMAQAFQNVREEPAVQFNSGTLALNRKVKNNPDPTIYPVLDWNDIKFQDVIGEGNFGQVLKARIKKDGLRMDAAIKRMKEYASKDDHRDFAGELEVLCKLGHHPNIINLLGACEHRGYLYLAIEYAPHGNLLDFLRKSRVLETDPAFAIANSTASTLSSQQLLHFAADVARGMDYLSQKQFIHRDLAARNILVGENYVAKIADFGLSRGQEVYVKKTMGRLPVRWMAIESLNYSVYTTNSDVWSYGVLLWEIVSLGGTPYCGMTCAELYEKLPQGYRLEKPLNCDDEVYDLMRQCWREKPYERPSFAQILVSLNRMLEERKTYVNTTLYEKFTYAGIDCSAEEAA
Chain of CAMK1D (CaMKI delta) (Q8IU85 whole entry): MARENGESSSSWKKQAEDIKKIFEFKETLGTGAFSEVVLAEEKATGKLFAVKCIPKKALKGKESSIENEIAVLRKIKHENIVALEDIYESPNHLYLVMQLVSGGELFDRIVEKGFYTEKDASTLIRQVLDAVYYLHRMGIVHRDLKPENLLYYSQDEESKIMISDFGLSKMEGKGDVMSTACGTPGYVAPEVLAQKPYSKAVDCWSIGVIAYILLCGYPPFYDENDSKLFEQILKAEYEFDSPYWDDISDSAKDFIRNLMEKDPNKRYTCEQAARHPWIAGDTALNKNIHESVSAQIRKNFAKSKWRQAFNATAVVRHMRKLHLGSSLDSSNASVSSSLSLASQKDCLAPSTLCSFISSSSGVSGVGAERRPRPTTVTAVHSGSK
Chain of FGFR1 (P11362 22-822): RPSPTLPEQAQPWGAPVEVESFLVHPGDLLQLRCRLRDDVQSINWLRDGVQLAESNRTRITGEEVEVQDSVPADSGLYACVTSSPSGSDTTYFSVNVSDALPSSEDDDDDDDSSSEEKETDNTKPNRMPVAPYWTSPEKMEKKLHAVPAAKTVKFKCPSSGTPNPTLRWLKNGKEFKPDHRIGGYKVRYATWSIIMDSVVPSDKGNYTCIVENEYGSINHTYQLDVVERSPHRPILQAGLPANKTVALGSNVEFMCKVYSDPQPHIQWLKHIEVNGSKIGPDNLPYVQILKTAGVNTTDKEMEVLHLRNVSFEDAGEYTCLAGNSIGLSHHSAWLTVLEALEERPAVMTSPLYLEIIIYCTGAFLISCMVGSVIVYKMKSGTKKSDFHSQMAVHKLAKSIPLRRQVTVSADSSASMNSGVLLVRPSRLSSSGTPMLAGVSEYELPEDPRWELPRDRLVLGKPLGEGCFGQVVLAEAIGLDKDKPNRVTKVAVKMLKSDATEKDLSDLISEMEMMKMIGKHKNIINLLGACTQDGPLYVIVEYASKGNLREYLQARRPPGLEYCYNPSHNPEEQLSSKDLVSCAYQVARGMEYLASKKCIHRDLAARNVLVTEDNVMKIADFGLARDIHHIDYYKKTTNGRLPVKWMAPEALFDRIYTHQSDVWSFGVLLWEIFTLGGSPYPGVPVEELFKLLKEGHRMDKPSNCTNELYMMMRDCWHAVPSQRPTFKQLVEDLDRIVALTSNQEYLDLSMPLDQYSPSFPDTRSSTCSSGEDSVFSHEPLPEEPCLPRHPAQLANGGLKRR
Chain of CDK1/cyclin B (P06493 whole entry): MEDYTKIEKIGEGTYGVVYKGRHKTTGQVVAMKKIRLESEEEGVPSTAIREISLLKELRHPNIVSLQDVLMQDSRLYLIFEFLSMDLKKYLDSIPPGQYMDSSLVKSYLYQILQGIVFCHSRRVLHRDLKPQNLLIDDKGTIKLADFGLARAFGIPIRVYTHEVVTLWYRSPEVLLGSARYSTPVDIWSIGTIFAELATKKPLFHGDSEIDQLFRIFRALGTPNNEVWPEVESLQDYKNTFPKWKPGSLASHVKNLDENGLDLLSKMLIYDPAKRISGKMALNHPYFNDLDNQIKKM
Chain of CDK1/cyclin B (P14635 whole entry partner): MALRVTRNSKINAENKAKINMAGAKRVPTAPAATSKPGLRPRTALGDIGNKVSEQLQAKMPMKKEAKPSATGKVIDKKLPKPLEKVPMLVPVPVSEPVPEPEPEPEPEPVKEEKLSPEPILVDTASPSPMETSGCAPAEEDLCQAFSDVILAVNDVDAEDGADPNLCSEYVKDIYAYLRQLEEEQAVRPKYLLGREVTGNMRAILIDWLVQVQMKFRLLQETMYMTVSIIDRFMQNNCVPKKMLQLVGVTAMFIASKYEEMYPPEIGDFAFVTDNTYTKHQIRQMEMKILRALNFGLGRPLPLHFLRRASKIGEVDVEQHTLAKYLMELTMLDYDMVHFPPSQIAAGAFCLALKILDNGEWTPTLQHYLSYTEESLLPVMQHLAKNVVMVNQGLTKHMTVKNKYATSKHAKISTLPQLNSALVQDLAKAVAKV
Chain of PLK1 (P53350 whole entry): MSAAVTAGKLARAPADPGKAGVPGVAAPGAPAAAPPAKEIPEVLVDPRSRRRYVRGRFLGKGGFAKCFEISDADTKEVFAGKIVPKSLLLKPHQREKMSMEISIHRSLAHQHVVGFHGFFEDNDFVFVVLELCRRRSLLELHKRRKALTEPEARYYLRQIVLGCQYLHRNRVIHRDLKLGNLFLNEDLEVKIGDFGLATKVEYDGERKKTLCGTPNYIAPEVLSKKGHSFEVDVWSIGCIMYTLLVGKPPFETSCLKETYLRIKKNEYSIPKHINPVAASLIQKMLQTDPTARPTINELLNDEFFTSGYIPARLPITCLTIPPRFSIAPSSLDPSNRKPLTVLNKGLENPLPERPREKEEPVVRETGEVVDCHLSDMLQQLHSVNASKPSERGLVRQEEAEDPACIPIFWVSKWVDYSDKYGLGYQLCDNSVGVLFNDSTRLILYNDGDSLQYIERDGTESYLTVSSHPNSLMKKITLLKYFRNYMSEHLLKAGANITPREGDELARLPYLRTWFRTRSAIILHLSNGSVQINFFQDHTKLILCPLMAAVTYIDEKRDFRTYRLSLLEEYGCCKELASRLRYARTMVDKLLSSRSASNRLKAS

Cc1c(CCC(=O)O)c2cc(Br)ccc2n1C(=O)c1ccccc1 [IA107]
inhibition at 5 µM (TEK (Tie2)): 6%
inhibition at 5 µM (ABL1): 3%
inhibition at 5 µM (CAMK1D (CaMKI delta)): 8%
inhibition at 5 µM (ROCK1): 1%
inhibition at 5 µM (ERBB2 (HER2)): -3%
inhibition at 5 µM (EGFR (ErbB1)): 5%
inhibition at 5 µM (IGF1R): 3%
inhibition at 5 µM (RET): 9%
inhibition at 5 µM (LCK): 8%
inhibition at 5 µM (NEK1): 17%
inhibition at 5 µM (DNA-PK): -2%
inhibition at 5 µM (KIT): 0%
inhibition at 5 µM (TAOK2 (TAO1)): -4%
inhibition at 5 µM (HIPK4): 6%
inhibition at 5 µM (CDK1/cyclin B): 4%
inhibition at 5 µM (PLK1): 3%
inhibition at 5 µM (PRKCB1 (PKC beta I)): 7%
inhibition at 5 µM (IKBKE (IKK epsilon)): 2%
inhibition at 5 µM (SYK): 3%
inhibition at 5 µM (FGFR1): 4%
inhibition at 5 µM (GSK3B (GSK3 beta)): 21%

CCOC(=O)CCc1c(C)n(C(=O)c2ccccc2)c2ccc(Br)cc12 [IAPD1]
effect on IRE1α transcription level [1]: did not influence; also recorded: no obvious impact
effect on IRE1α transcription level [2]: did not influence; also recorded: no obvious impact
